The text below walks through data of patent publication US9303044B2, “7-(piperazin-1-yl)-5H-[1,3,4]thiadiazolo[3,2-A]pyrimidin-5-ones for the treatment of thrombotic disorders” (The Rockefeller University, priority 2012, dated 2016).

The structures appear in SMILES notation.

A word on the IC50: it is the concentration that gives 50% inhibition.

This assay concerns platelet aggregation. In words: ADP-induced platelet aggregation assay in citrated platelet-rich plasma. The format is cell-based. Particulars: Homo sapiens, initial slopes, read-out: IC50, inhibition of platelet aggregation. As to the method: The platelet aggregation assay may be conducted by modification of the assay as disclosed in Blue et al., Blood 2008, 111, 1248, the contents of which are incorporated by reference in their entirety. Citrated platelet-rich plasma (PRP), may be generated by the centrifugation of whole blood at 650 g for 4 minutes at 22° C., and may then be incubated in aggregometer cuvettes with Compounds of the Invention (final concentration of 100 μM, 30 μM, 10 μM, 1 μM, 0.30 μM, 0.1 μM, 0.03 μM and 0.01 μM) or controls for 15 minutes at 37° C. After 30 seconds in the aggregometer (Bio/Data PAP8; Horsham, Pa.) at 37° C. with stiffing, ADP (5-20 μM) may be added to induce aggregation and the light transmittance is measured for 8 minutes. The initial slopes of aggregation in the presence of different concentrations of the Compound tested may be used to generate an IC50.

Regarding `NCC(=O)Nc1cc(-c2nn3c(=O)cc(N4CCNCC4)nc3s2)ccn1` [Example 14-B, 2-amino-N-(4-(5-oxo-7-(piperazin-1-yl)-5H-[1,3,4]thiadiazolo[3,2-a]pyrimidin-2-yl)pyridin-2-yl)acetamide], the IC50 came to 53.6 ± 15.5 nM.
Consider `NCC(=O)Nc1cncc(-c2nn3c(=O)cc(N4CCNCC4)nc3s2)c1` [Example 14-C, 2-Amino-N-(5-(5-oxo-7-(piperazin-1-yl)-5H-[1,3,4]thiadiazolo[3,2-a]pyrimidin-2-yl)pyridin-3-yl)acetamide], for which the IC50 was 62 ± 10 nM.
